Columns and labels:
[1] = biological target: EGFR (Homo sapiens (Human), UniProt P00533); experiment: Jump dilution experiment, EGFR; format: biochemical; details: 1.5-h incubation, 46 nM EGFR, 10×IC50 compound, 100-fold dilution
Description: Six compounds (used at 10 times their IC50 concentrations) were pre incubated with EGFR (at 46 nM or 100-fold the normal assay concentration) for 1.5 h at room temperature. Sample containing only DMSO vehicle was used as a positive (full activity) control while sample with no enzyme was used as a negative (zero activity) control. After the preincubation, the mixture was diluted 100-fold into a reaction mixture containing 0.5 uM biotinylated substrate and 1.57 uM ATP and the reaction was allowed to proceed for various time points (2, 5, 10, 15, 30, 40, 45 and 60 min), at which the reaction was terminated by adding 1 ul of 0.5 M EDTA. 31.25 nM SA-XL665 and 100-fold diluted europium labelled antibody (Eu-Ab), diluted in 1× detection buffer, was added as detection mixture. After 60 min of incubation, the fluorescence emission was measured at 620 nm and 665 nm. The ratio of Em 665 nm to Em 620 nm was proportional to the amount of substrate phosphorylated by the kinase.

[2] = biological target: His-tagged BTK protein (SEQ ID NO: 1) (Homo sapiens (Human), UniProt Q06187); experiment: Intact mass analysis (LC-MS/MS) of covalent modification; format: binding; details: His-tagged BTK (unmodified 32,650 Da) incubated with compound
His-tagged BTK protein (SEQ ID NO: 1), sequence (Q06187 other isoform, or with tags, fused parts or gaps): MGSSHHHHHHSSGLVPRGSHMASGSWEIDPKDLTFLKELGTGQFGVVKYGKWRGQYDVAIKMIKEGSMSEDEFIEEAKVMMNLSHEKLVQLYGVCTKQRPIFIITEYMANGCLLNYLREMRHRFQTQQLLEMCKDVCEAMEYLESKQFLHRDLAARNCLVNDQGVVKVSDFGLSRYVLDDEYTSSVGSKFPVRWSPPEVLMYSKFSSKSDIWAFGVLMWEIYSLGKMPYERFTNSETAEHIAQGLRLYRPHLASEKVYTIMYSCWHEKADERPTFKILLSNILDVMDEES
Description: The covalent modification of the proteins with the compounds were evaluated using intact mass analysis by liquid chromatography-mass spectrometry instrument (LC-MS/MS).
The reaction solution (20 μL) was prepared in 96-well plate and contained the protein (2 μM), the compound (100 μM), HEPES buffer (20 mM, pH 8), 2% DMSO, 2% glycerol, and 150 mM NaCl. The reaction was allowed to proceed for 24 h at 25° C. The reaction solution (1 μL) was injected into the LC/MS/MS without any further sample preparation.
The LC-MS/MS instrument comprises of a Waters G2-XS quadrupole-time of flight (QTof) mass spectrometer and a Waters Acuity I-class Ultra-High Performance Liquid Chromatography (UPLC) system. The I-class UPLC system includes a binary solvent manager (BSM), and a Acquity sample manager (SM). The mobile phase consisted of: A) 0.1% (v/v) formic acid in MilliQ water; B) 0.1% (v/v) formic acid acetonitrile. Gradients were run over 5 min and proceeded as follows: A:B, 85:15, 0.0-0.7 min, 85:15→15:85, 0.7-1.5 min, 10:90, 1.5-4 min, 10:90→85:15, 4-4.5 min, 85:15, 4.5-5 min. The analytical column was a Waters BEH C4 column 1.7 μm (50×1 mm) column with pore sizes of […]. The TOF MS data was collected in positive ion mode (m/z of 400-2000 Da) using MassLynx software (Waters).
The spectral deconvolution was performed using UNIFI software (Waters). The added mass of the protein upon covalent modification to cysteine residues were specified. Multiple modification of up to 8 cysteine was allowed. All the adducts with signal intensities of <2% of the base peak were ignored. The % modification was calculated as the adduct signal intensity over the total intensities of the protein peaks and the adducts.

EGFR, sequence (P00533 25-1210): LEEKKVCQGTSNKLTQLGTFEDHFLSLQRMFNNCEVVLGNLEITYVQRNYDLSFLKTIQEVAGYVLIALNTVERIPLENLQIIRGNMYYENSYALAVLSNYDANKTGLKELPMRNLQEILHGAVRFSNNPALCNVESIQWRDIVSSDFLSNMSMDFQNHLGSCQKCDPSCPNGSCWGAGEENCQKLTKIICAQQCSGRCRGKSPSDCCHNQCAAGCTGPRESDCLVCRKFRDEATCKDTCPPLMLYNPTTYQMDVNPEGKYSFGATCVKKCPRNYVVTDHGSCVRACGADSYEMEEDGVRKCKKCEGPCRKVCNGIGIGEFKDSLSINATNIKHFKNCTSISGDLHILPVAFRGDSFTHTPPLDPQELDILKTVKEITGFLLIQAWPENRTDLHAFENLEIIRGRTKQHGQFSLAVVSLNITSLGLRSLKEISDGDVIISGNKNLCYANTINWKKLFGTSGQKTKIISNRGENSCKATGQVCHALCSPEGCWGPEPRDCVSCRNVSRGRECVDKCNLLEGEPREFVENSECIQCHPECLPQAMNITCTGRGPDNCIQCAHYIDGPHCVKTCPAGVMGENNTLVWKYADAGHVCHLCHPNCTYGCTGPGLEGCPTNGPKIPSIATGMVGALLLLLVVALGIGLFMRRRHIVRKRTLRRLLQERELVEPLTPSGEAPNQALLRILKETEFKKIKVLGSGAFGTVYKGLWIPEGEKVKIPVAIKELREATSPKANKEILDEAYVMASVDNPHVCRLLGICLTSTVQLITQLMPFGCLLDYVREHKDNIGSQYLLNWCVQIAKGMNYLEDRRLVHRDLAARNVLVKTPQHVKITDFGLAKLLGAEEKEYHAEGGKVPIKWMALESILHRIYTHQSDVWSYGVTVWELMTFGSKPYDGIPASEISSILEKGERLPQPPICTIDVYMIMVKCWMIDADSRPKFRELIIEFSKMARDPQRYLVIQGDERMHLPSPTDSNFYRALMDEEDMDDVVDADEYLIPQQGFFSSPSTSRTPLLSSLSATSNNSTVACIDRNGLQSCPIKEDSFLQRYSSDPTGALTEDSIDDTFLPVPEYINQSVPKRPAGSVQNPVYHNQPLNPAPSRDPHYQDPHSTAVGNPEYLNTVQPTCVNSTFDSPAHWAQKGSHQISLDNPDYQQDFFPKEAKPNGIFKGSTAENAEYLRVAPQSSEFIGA

residual activity of EGFR after jump dilution, relative to enzyme incubated with DMSO alone [1]	covalent adduct mass (intact mass analysis, modification by one molecule) [2]	Structure (SMILES)
less than 20%		CS(=O)(=O)c1c(F)c(F)c(F)c(F)c1Nc1cc2c(Nc3ccc(F)c(Cl)c3)ncnc2cc1O[C@H]1CCOC1 [Compound I-2, (S)—N^4-(3-chloro-4-fluorophenyl)-N^6-(2,3,4,5-tetrafluoro-6-(methylsulfonyl)phenyl)-7-((tetrahydrofuran-3-yl)oxy)quinazoline-4,6-diamine]
less than 20%		C[S+]([O-])c1c(F)c(F)c(F)c(F)c1C(=O)Nc1cc2c(Nc3ccc(F)c(Cl)c3)ncnc2cc1OC1CCOC1 (stereo not shown) [Compound I-3]
less than 20%		C[S+]([O-])c1c(F)c(F)c(F)c(F)c1Nc1cc2c(Nc3ccc(F)c(Cl)c3)ncnc2cc1O[C@H]1CCOC1 (stereo partly drawn) [Compound I-4, N^4-(3-chloro-4-fluorophenyl)-N^6-(2,3,4,5-tetrafluoro-6-(methylsulfinyl)phenyl)-7-(((S)-tetrahydrofuran-3-yl)oxy)quinazoline-4,6-diamine]
	33,263 Da	Nc1ncnc2c1c(-c1ccc(Oc3ccccc3)cc1)nn2[C@@H]1CCN(S(=O)(=O)c2c(F)c(F)c(F)c(F)c2OCF)C1 [Compound I-24, (R)-3-(4-phenoxyphenyl)-1-(1-((2,3,4,5-tetrafluoro-6-(fluoromethoxy)phenyl)sulfonyl)pyrrolidin-3-yl)-1H-pyrazolo[3,4-d]pyrimidin-4-amine]
